Source: ChEMBL document CHEMBL1201862, “PubChem BioAssay data set” (2004)
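Five compound concentrations were applied to cells in 96-well plates for 48 hours; endpoints were derived by simple linear interpolation of the resulting dose-response curve. Here, GI50 denotes the concentration required for 50% inhibition of growth.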 Activity calls are given as the source filed them. Rule as the data show it: active = GI50 up to about 1.1 µM and inactive = higher.

Columns and labels:
Assay in all cases: NCI tumour cell line growth inhibition, 48 h
[1] = tested on: K562
[2] = tested on: BT-549
[3] = tested on: T47D
[4] = tested on: HCT-15
[5] = tested on: HOP-62
[6] = tested on: RPMI-8226
[7] = tested on: SK-MEL-28
[8] = tested on: 786-0
[9] = tested on: TK-10
[10] = tested on: OVCAR-5
[11] = tested on: OVCAR-4
[12] = tested on: NCI-H522
[13] = tested on: RXF 393
[14] = tested on: CAKI-1
[15] = tested on: Malme-3M
[16] = tested on: CCRF-CEM
[17] = tested on: HOP-92
[18] = tested on: SR

## Cc1cc(Cc2cc(C)c(N)cc2N)c(N)cc1N
[1]
  GI50: > 100 µM (inactive)
[2]
  GI50: > 100 µM (inactive)
[3]
  GI50: > 100 µM (inactive)
[4]
  GI50: > 100 µM
[5]
  GI50: 93.5 µM (inactive)
[6]
  GI50: > 100 µM (inactive)
[7]
  GI50: > 100 µM (inactive)
[8]
  GI50: > 100 µM (inactive)
[9]
  GI50: > 100 µM (inactive)
[10]
  GI50: > 100 µM (inactive)
[11]
  GI50: > 100 µM (inactive)
[12]
  GI50: 88.9 µM (inactive)
[13]
  GI50: > 100 µM (inactive)
[14]
  GI50: > 100 µM (inactive)

## O=C(C#Cc1cnc(O)nc1O)c1ccccc1Cl
[1]
  GI50: 4.83 µM (inactive)
[4]
  GI50: 15 µM
[5]
  GI50: > 100 µM (inactive)
[15]
  GI50: 13.3 µM (inactive)
[6]
  GI50: 23.9 µM (inactive)
[7]
  GI50: 17.9 µM (inactive)
[16]
  GI50: 3.94 µM (inactive)
[8]
  GI50: 18 µM (inactive)
[9]
  GI50: 21.6 µM (inactive)
[17]
  GI50: 19.7 µM (inactive)
[10]
  GI50: 19.7 µM (inactive)
[11]
  GI50: 17.4 µM (inactive)
[13]
  GI50: 3.07 µM (inactive)
[14]
  GI50: 17.1 µM (inactive)

## CC(C)[Si](OC1=C(C(=O)N(C)c2ccccc2Cl)CCC1)(C(C)C)C(C)C
[2]
  GI50: 15.8 µM (inactive)
[3]
  GI50: 19.7 µM (inactive)
[4]
  GI50: 16.5 µM
[5]
  GI50: 17.6 µM (inactive)
[15]
  GI50: 19.1 µM (inactive)
[6]
  GI50: 19.2 µM (inactive)
[7]
  GI50: 21.5 µM (inactive)
[8]
  GI50: 21.7 µM (inactive)
[9]
  GI50: 17.8 µM (inactive)
[17]
  GI50: 18.3 µM (inactive)
[10]
  GI50: 9.64 µM (inactive)
[11]
  GI50: 16.3 µM (inactive)
[12]
  GI50: 14.1 µM (inactive)
[13]
  GI50: 18.3 µM (inactive)
[14]
  GI50: 18.7 µM (inactive)

## Cc1cc2c(s1)C(N)CC2=O (configuration not stated)
[1]
  GI50: > 100 µM (inactive)
[2]
  GI50: > 100 µM (inactive)
[3]
  GI50: > 100 µM (inactive)
[4]
  GI50: > 100 µM
[5]
  GI50: > 100 µM (inactive)
[15]
  GI50: > 100 µM (inactive)
[6]
  GI50: > 100 µM (inactive)
[7]
  GI50: > 100 µM (inactive)
[16]
  GI50: > 100 µM (inactive)
[8]
  GI50: > 100 µM (inactive)
[9]
  GI50: > 100 µM (inactive)
[18]
  GI50: > 100 µM (inactive)
[10]
  GI50: > 100 µM (inactive)
[13]
  GI50: > 100 µM (inactive)
[14]
  GI50: > 100 µM (inactive)

## C=Cc1nc2nnc(CCCCCCCCc3nnc4nc(C=C)[nH]n34)n2[nH]1
[1]
  GI50: 21.6 µM (inactive)
[2]
  GI50: > 100 µM (inactive)
[4]
  GI50: > 100 µM
[5]
  GI50: > 100 µM (inactive)
[15]
  GI50: 58.7 µM (inactive)
[7]
  GI50: > 100 µM (inactive)
[16]
  GI50: > 100 µM (inactive)
[8]
  GI50: 80.9 µM (inactive)
[9]
  GI50: > 100 µM (inactive)
[10]
  GI50: > 100 µM (inactive)
[11]
  GI50: 83.9 µM (inactive)
[13]
  GI50: > 100 µM (inactive)
[14]
  GI50: > 100 µM (inactive)

## CCC(=O)OC1=C(c2ccccc2)Sc2ccc(Cl)cc2-n2cccc21
[1]
  GI50: 5.75 µM (inactive)
[3]
  GI50: > 10 µM (inactive)
[4]
  GI50: 4.69 µM
[5]
  GI50: > 10 µM (inactive)
[15]
  GI50: > 10 µM (inactive)
[6]
  GI50: 4.45 µM (inactive)
[7]
  GI50: > 10 µM (inactive)
[16]
  GI50: 8.89 µM (inactive)
[8]
  GI50: > 10 µM (inactive)
[9]
  GI50: > 10 µM (inactive)
[17]
  GI50: 5.78 µM (inactive)
[18]
  GI50: 7.52 µM (inactive)
[11]
  GI50: > 10 µM (inactive)
[13]
  GI50: 3.24 µM (inactive)
[14]
  GI50: > 10 µM (inactive)

## CN(C)CCNC(=O)c1cccc2c1nc(-c1ccccc1)c1ccccc12
[1]
  GI50: 2.17 µM (inactive)
[4]
  GI50: 2.68 µM
[5]
  GI50: 4.27 µM (inactive)
[7]
  GI50: 9.1 µM (inactive)
[16]
  GI50: 1.61 µM (inactive)
[8]
  GI50: 3.97 µM (inactive)
[9]
  GI50: 3.93 µM (inactive)
[17]
  GI50: 2.83 µM (inactive)
[10]
  GI50: 4.66 µM (inactive)
[11]
  GI50: 5.45 µM (inactive)
[13]
  GI50: 2.58 µM (inactive)
[14]
  GI50: 3.74 µM (inactive)

## CN(C(=O)C1=CCC2(CC1)OCCO2)c1ccccc1OS(=O)(=O)C(F)(F)F
[1]
  GI50: > 100 µM (inactive)
[3]
  GI50: > 100 µM (inactive)
[4]
  GI50: 59 µM
[5]
  GI50: 27.4 µM (inactive)
[6]
  GI50: > 100 µM (inactive)
[7]
  GI50: > 100 µM (inactive)
[16]
  GI50: 43.2 µM (inactive)
[8]
  GI50: 24.3 µM (inactive)
[17]
  GI50: > 100 µM (inactive)
[18]
  GI50: > 100 µM (inactive)
[10]
  GI50: > 100 µM (inactive)
[11]
  GI50: 57.8 µM (inactive)
[13]
  GI50: > 100 µM (inactive)
[14]
  GI50: > 100 µM (inactive)
